Entries after “also recorded” stand apart in the source; their conditions may differ.
Test system: cryopreserved mouse sperm
Experiment: In vitro fertilization with thawed cryopreserved sperm: fertilization rate (#2-cell embryos/# total oocytes)
Type: cell-based
Conditions: for effect on fertilization rate / fertility of cryopreserved C57BL/6J sperm: MTG 159 μM to 636 μM in CPM, relative to presently-available methods, FIG. 1
Experimental: The epididymides and vas deferentia are extracted from the C57BL/6J male and placed into the cryoprotective media described herein. […] Incisions are made in the tissues, allowing the sperm to swim out into the CPM; this is allowed for at least 5 but for less than 20 min. The residual tissues are then removed from the collection drop. Ten micro liters of the sperm sample are loaded into as many as one hundred 250 μL French straws (IMV; Maple Grove, Minn.). Two hundred and fifty microliter straws, containing a 5.5 cm column of CPM, a 2.5 cm column of air, a 0.6 cm column of sperm sample followed by a column of air, are sealed with an instantaneous heat sealer. The straws are loaded into cassettes and exposed to liquid nitrogen vapor for at least 10 min before being plunged into the liquid nitrogen. This essentially cools the sperm at 37° C./min.
Subsequent to storage in liquid nitrogen, 3 samples from each treatment are thawed in a 37° C. water bath for 30 sec, and then each 10 μL aliquot is placed directly into its own 500 μL in vitro fertilization (IVF) drop of Cooks Mouse Vitro Fert (Cook Australia; Queensland, Australia). After an hour of incubation, 4 cumulus intact oocyte clutches from superovulated C57BL/6J females are added to the in vitro fertilization drops. IVF is carried out using methods known to those of skill in the art, such as by the methods described by Nakagata. (Nakagata, 2000a; Nakagata, 2000b). The sperm and oocytes are incubated together for 4 hrs before the presumptive zygotes are removed from the IVF drop and placed in a culture drop for overnight incubation.
Approximately 18 hours later, the percentage of oocytes developing into 2-cell embryos is determined (#2-cell embryos/# total oocytes). For statistical analysis, percents are arcsine transformed and the averages of at least 3 IVF drops per treatment are evaluated with a T-Test. A difference between treatments is illustrated with an asterisk (p<0.05). For presentation, means and standard errors were converted back into percents. […]
Ten μL aliquots of sperm from a variety of mouse strains as listed in Table 7 are frozen in the CPM with 477 μM monothioglycerol as ROS(CPM). A total of at least 6 sperm samples per treatment within a strain are utilized. These represented at least 3 samples from each of at least 2 sets of 2 males whose sperm are pooled at the time of collection and then split into the two treatments. Subsequent to thawing the samples are placed directly into their own 500 μL in vitro fertilization (IVF) drop of Cooks Mouse Vitro Fert (Cook Australia; Queensland, Australia; (Quinn et al., 1995)). After an hour incubation, 4 cumulus intact oocyte clutches from isogenic strains were added to the incubation medium. Following a 4 hr co-incubation, the presumptive zygotes were washed and cultured overnight. Approximately 18 hours later, the fertilization rate was determined (% 2 cell: #2-cell embryos/# total oocytes, see Table 7). The average percentage was determined. For each line, about 30 2-cell embryos were implanted into receptive females. After approximately 21 days, the number of live born mice was determined, shown as % Live born in Table 7.
To determine if storage of the cryoprotective media at −80° C. altered the activity of the C57BL/6J mouse sperm., in vitro fertilizations (IVF) were preformed as described previously (see Example 1, also see publications by Nakagata, 2000a; Nakagata, 2000b, Sztein et al. 2000; Byers et al. 2006). Briefly the sperm and oocytes, both from C57BL/6J mice, were incubated together for 4 hrs in a benchtop incubator at 37° C. After 4 hrs of co-incubation the presumptive zygotes were washed through two 150 μL drops of IVF media (MVF; Cook's; Spencer, Ind.) and then cultured overnight. Approximately 18 hrs later, the proportion of oocytes fertilized was calculated by dividing the number of two-cell embryos by the sum of two-cells and normally appearing presumptive one-cell oocytes. […]

[1] = C57BL/6 sperm cryopreserved in CPM containing 1 mM free radical scavenger
[2] = C57BL/6 sperm cryopreserved in CPM containing 5 mM free radical scavenger

Row | SMILES | Fertilization Rate (2-cell embryos of total oocytes) (C57BL/6 sperm cryopreserved in CPM containing 0.5 mM free radical scavenger) | Fertilization Rate (2-cell embryos of total oocytes) [1] | Fertilization Rate (2-cell embryos of total oocytes) [2] | Fertilization Rate (2-cell embryos of total oocytes) (C57BL/6 sperm cryopreserved in CPM containing 50 mM free radical scavenger) | effect on fertilization rates / fertility of cryopreserved C57BL/6J sperm (GSH 500 μM to 5 mM in CPM, compared to CPM without a reducing agent, FIG. 2) | MTG concentration that provided the best results (fertilization rate) (C57BL/6J sperm, MTG tested from 159 μM to 636 μM) | Fertilization Rate (2-cell embryos of total oocytes) (C57BL/6 sperm cryopreserved in CPM containing 0.477 mM free radical scavenger) | effect on fertilization rate / fertility of cryopreserved C57BL/6J sperm | effect on fertilization rate / fertility of cryopreserved C57BL/6J sperm (listed as monothioglycerol) | Fertilization Rate (2-cell embryos of total oocytes) (C57BL/6 sperm cryopreserved in CPM containing 0.1 mM free radical scavenger) | Fertilization Rate (2-cell embryos of total oocytes) (C57BL/6 sperm cryopreserved in CPM containing 20 mM free radical scavenger)
1 | N[C@@H](CCC(=O)N[C@@H](CS)C(=O)NCC(=O)O)C(=O)O [GSH, reduced glutathione] | 59.7% | 49.5% | 39.9% | 0.0% | increase the fertilization rates; also recorded: enhances the fertility | – | – | – | – | – | –
2 | OCC(O)CS (stereo not shown) [MTG, monothioglycerol] | – | – | – | – | – | 477 µM | 75.2% | improved fertilization rate | enhances the fertility | – | –
3 | O[C@H](CS)[C@H](O)CS (racemic) [DTT, dithiothreitol] | – | 2% | 0.9% | – | – | – | – | – | – | 19.2% | 6.4%

Reference: patent publication US8420307B2, “Sperm cryoprotective media” (The Jackson Laboratory, priority 2006, dated 2013)
